Where two headings read alike, the source gives them in different places.
Columns and labels:
[1] = tested on: 8-isoPG1F2α level in rat glial cells C6; assay: In situ isoprostane level (8-isoPG1F2α) in C6 cells treated with maitotoxin; format: cell-based; conditions: 3 h, read-out: Inhibition of the isoprostane count in situ (C6) [IC50 (μM)]
Description: 8-isoPG1F2α is part of a family of compounds the first synthesis stage of which (peroxidation of arachidonic acid) is carried out in a non-enzymatic manner in the presence of free radicals (Morrow and coll, 1990). Measurement of the 8-iso PGF2α level is considered as a reliable marker of the oxidation stress.
The rat glial cells C6 were seeded at 25 000 cells per well in 96-well plates in DMEM 10% FBS. The next day, 100 μl of product A was placed in the wells. After incubation for 1 hour at 37° C. under an atmosphere of 5% CO2, 10 μl containing maitotoxin is added in order to obtain a final concentration in the well of 1 nM. After incubation for 3 hours, the supernatants are removed and frozen at −20° C. The 8-isoPG1F2α level is measured using a specific EIA dosage kit (Cayman chemical, ref: 516351).

[2] = tested on: L6 Myoblasts differentiated to myotubes (rat skeletal muscle cells); assay: Protection from necrosis induced by maitotoxin, L6 myoblasts differentiated to myotubes; format: cell-based; conditions: single product at 100 μM
Description: (§1) Human neuroblastomas SHSY5Y and rat glial cells C6 are seeded at 25 000 cells per well in 96-well plates in DMEM 10% FBS for 24 hours. The L6 rat myoblasts are seeded at 1000 cells per well in DMEM 10% FBS on 96-well microplates coated beforehand with gelatin 0.5% PBS. After culture for 3 days the medium is removed and replaced with a differentiation medium (DMEM+10 μg/ml of insulin+100 μg/ml of transferrin). 50 μl of product A plus 50 μl of solvent or 50 μl of product B are placed in the wells. After incubation for 1 hour at 37° C. under an atmosphere of 5% CO2, 10 μl of maitotoxin is added in order to obtain a final concentration of 0.1 nM to 1 nM (according to the cell type). After incubation for 3 hours at 37° C. under an atmosphere of 5% CO2, the cell viability is determined by adding 10 μl of tetrazolium salts (wst-1, Roche, ref: 1644807). The tetrazolium salts are cleaved into formazan molecules by mitochondrial dehydrogenases. The quantity of formazan formed is directly correlated to the number of metabolically active cells in the culture. Measurement of the absorbance of the formazan is carried out using a multiwell photometer at a wavelength of 420 nm against a reference wavelength of 620 nm.
The theoretical effect was obtained by multiplying the percentage of dead cells in the presence of product A by the percentage of dead cells in the presence of product B (Table 3). […]

rat glial cells C6 = assay: Protection from necrosis induced by maitotoxin, C6 (wst-1 viability); format: cell-based
Description: as §1
(§2) The theoretical effect was obtained by multiplying the percentage of dead cells in the presence of product A by the percentage of dead cells in the presence of product B (Table 3). The percentage protection against cell death induced by MTX being the percentage of cells kept alive in the presence of the product or products.
In the light of the previous results, the combination of Example 1 with product A and product B at a rate of 100 μM of each of the products is carried out on human neuroblastomas (SHSY5Y; (Table 5A) and on glial cells with 25 μM of product A and 50 μM of product B (C6; Table 5B) on a larger number of cases.

[3] = tested on: lipidic peroxidation of rat cerebral cortex homogenate; assay: In vitro lipidic peroxidation (Fenton reaction, MDA) in rat cerebral cortex membranes; format: biochemical; conditions: iron/ascorbate, read-out: Inhibition of lipidic peroxidation [IC50 (μM)]
Description: The test consists of inducing lipidic peroxidation by Fenton reactions in the presence of iron and ascorbate. The degree of lipidic peroxidation is determined by the concentration of malonaldehyde (MDA). The MDA produced by the lipidic peroxidation of unsaturated fatty acids is a good indicator of lipidic peroxidation (Esterbauer et al, 1990; Meth. Enzymol. 186: 407421). For this colorimetric test, the condensation of a molecule of MDA with two molecules of chromogenic reagent R (N-methyl-2-phenylindole) produces a stable chromophore the maximum absorbance wavelength of which is equal to […].
The membranes are prepared from the cortexes of male Sprague Dawley rats weighing 200 to 250 g. The animals are sacrificed by decapitation and the brains are immediately removed and rinsed in cold Tris HCl 20 mM pH 7.4. The cortexes, after dissection and removal of the white matter, are then ground with the Thomas potter, in Tris HCl buffer 20 mM pH 7.4 at 4° C. The homogenate obtained is centrifuged at low speed in order to eliminate the large debris (515 g for 15 minutes at 4° C.). The supernatant is then distributed into polycarbonate centrifugation tubes and centrifuged at 51500 g for 25 min at 4° C. The membrane pellets are kept at −80° C.
On the day of the experiment, the frozen membranes are resuspended at a concentration of 0.5 equivalent grams of cortex per 5 ml of Tris HCl buffer 20 mM pH 7.4 and homogeneized using a combitips. In 96-well “deep-well” 1 ml polypropylene plates with a conical base, 5 μl per well of the product to be tested or of solvent is mixed with 40 μl of rat cerebral cortex homogenate by centrifugation (800 rpm). The plates are covered with a self-adhesive aluminium sheet and incubated at 37° C. for 15 minutes under agitation. […]
The membranes and the supernatants are separated by filtration under vacuum on a 96-well plate with a multiscreen filtering base NA (Millipore, ref: MANANLY 50). The absorbance of the supernatants recovered in the 96-well plates is read using a photometer.

[4] = tested on: human neuroblastomas SHSY5Y; assay: Protection from necrosis induced by maitotoxin, SHSY5Y (wst-1 viability); format: cell-based; conditions: for Protection from necrosis induced by MTX: SHSY5Y, n=2, 0.1 nM maitotoxin; for Protection from necrosis induced by MTX on SHSY5Y: n = 8, single product at 100 μM
Description: as §1, §2
In a first series of experiments, the concentration of product A in Example 1 is fixed (100 μM), product B is added at concentrations varying from zero to 100 μM (Table 4A). In a second series of experiments, product B of Example 1 is fixed at 100 μM, product A is added at concentrations varying from zero to 100 μM (Table 4B).

human calpain I = target: T1, human calpain I (Homo sapiens, UniProt P07384); assay: Effects on human calpain I (acellular, Suc-Leu-Tyr-AMC fluorescence); format: biochemical; conditions: enzyme purified from human erythrocytes; 1 h at 25°C; read-out: Inhibition human calpain I, acellular [IC50 (nM)]
T1 construct: enzyme purified from human erythrocytes; purchased Calbiochem 208713; host or cells: human erythrocytes (native tissue source)
T1 sequence (P07384 1-714): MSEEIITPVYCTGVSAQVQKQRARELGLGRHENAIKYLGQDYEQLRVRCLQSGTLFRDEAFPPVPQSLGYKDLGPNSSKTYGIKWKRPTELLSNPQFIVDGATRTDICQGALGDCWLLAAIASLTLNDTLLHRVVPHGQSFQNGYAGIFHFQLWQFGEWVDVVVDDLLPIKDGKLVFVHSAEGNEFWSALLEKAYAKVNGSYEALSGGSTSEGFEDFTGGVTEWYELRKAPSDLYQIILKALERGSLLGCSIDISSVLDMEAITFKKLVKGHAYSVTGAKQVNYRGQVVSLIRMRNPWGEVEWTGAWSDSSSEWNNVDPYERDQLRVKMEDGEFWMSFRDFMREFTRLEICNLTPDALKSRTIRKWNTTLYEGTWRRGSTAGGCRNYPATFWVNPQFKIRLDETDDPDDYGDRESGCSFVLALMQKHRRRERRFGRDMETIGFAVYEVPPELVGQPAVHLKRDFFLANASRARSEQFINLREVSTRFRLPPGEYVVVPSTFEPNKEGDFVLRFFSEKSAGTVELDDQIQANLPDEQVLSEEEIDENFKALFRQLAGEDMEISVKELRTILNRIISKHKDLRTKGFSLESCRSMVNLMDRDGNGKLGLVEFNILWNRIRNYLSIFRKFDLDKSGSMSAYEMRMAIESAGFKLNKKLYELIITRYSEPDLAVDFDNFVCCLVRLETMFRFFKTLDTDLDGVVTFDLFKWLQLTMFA
T1 sequence (P04632 1-268 partner): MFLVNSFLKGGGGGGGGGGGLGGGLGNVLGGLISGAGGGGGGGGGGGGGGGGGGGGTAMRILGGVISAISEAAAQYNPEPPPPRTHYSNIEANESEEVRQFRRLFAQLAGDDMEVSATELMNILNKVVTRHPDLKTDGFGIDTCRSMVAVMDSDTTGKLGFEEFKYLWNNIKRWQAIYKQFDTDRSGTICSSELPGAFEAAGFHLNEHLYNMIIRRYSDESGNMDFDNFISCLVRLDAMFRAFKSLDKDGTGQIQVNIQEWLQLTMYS
Description: The test consists of measuring the activity of the enzyme (enzyme purified from human erythrocytes) which is incubated in a buffer in the presence of a peptide substrate coupled with a fluorochrome (amino-methylcourmarin, AMC) and calcium. The enzyme activated by the calcium, proteolyses the substrate and releases the AMC fragment. The AMC released fluoresces at 460 nm under excitation at 380 nm. The activity of the enzyme is therefore proportional to the quantity of fluorescence i.e. of free AMC fragment. The fluorescence (380/460 nm) is measured using a multi-well fluorimeter (Victor 2, Wallac).
Assay is carried out in 96-well microplates with transparent bottoms and black walls in which 10 μl per well of substance to be tested in DMSO 10%, 45 μl of reaction mixture containing the human calpain I at 2.2 U/ml (Calbiochem, ref: 208713), the Suc Leu Tyr-AMC substrate (Bachem, ref: I-1355) at 1.1 mM in a buffer (Tris-HCl 110 mM; NaCl 110 mM; EDTA 2.2 mM; EGTA 2.2 mM; mercaptoethanol 1.1 mM) are distributed. The reaction is initiated by adding 45 μl of CaCl2 22mM. To determine the background noise, control wells without calcium are added to the plate (10 μL DMSO 10%+45 μL of buffer with the enzyme and the susbtrate +45 μL H2O). In order to determine the total activity of the enzyme control wells containing no product are added to the plate (10 μL DMSO 10%+45 μL of buffer with the enzyme and the substrate +45 μL of CaCl2 22 mM ). Each concentration of the products (0.1 nM to 10 μM) is tested in duplicate. The plates are shaken and incubation takes place for one hour at 25° C. in darkness. The fluorescence is read at 380/460 nm using the Victor.

[5] = single product at 50 μM, n = 3 for Example 2, else n = 1
[6] = single product at 100 μM, n = 1

Row | Compound | IC50 ([1]; Rattus norvegicus, Glial cell) | Protection from necrosis induced by MTX on L6 Myoblasts differentiated to myotubes [2] | Protection from necrosis induced by MTX on C6 (rat glial cells C6; [5]) | Protection from necrosis induced by MTX on C6 (rat glial cells C6; single product at 50 μM, n = 3 for Example 2, else n = 1, listed as 2-methoxy-10H-phenothiazine) | Protection from necrosis induced by MTX on C6 (rat glial cells C6; [6]) | IC50 [3] | IC50 ([1]; n = 3, maitotoxin 1 nM) | Protection from necrosis induced by MTX on C6 (rat glial cells C6; single product at 25 μM) | Protection from necrosis induced by MTX on C6 (rat glial cells C6; single product at 25 μM, listed as 3-5-di-tert-butyl-4-hydroxybenzoic acid) | Protection from necrosis induced by MTX on C6 (rat glial cells C6; single product at 25 μM, listed as EXAMPLE 4 A) | Protection from necrosis induced by MTX ([4]; single compound at 12.5 μM) | Protection from necrosis induced by MTX ([4]; single compound at 25 μM) | Protection from necrosis induced by MTX ([4]; single compound at 50 μM) | Protection from necrosis induced by MTX ([4]; single compound at 100 μM) | Protection from necrosis induced by MTX on SHSY5Y [4] | Protection from necrosis induced by MTX on SHSY5Y ([4]; listed as 3,5-di-tert-butyl-4-hydroxybenzoic acid) | IC50 (human calpain I)
1 | COc1ccc2c(c1)Nc1ccccc1S2 [EXAMPLE 2 A, 2-methoxy-10H-phenothiazine] | 0.4 µM | 10.94% | 6.56 ± 1.6% | inactive | 10.45% | 0.19 µM |  |  |  |  |  |  |  |  |  |  | 
2 | CC(C)(C)c1cc(C(=O)O)cc(C(C)(C)C)c1O [EXAMPLE 1 A, 3-5-di-tert-butyl-4-hydroxybenzoic acid] |  |  | 12.51% |  | 30.84% | 3.7 µM | 101 µM | 21.23% | ~20% | 16.17% | 5.18 ± 1.81% | 7.45 ± 1.65% | 8.87 ± 0.34% | 8.68 ± 0.3% | 19.48 ± 5.20% | less than 20% | 
3 | CCCC[C@@H](C=O)NC(=O)[C@H](CC(C)C)NC(=O)OCc1ccccc1 [EXAMPLE 3 B] |  | 5.09% | 13.03% |  | 0.84% |  |  |  |  |  |  |  |  |  |  |  | 2.8 nM
